The values below are quoted from earlier work in patent publication US9789102B2, “H3 receptor antagonist for use in the treatment of alzheimer's disease” (SANOFI, priority 2012, dated 2017).

In this series the test system is protein tau hyperphosphorylation. The following applies: 2-week treatment; TAPP transgenic mice; histopathological studies; cited from earlier work.

Each structure is given as a SMILES string.

For `C[C@@H]1CCCN1CCc1cc2cc(-c3ccc(C#N)cc3)ccc2o1` [ABT-239], the “protein tau hyperphosphorylation in the spinal cord and hippocampus” value is recorded as “effect”.
